Activity calls are given as the source filed them. The calls are words filed in the database; no cut-off is given here.
Columns and labels:
[1] = biological target: Metabotropic glutamate receptor 3 (Rattus norvegicus) (UniProt P31422); assay: Antagonist activity at rat mGluR3 transiently transfected in CHO cells expressing GIRKs assessed as inhibition of glutamate-induced reversible inward K+ current; type: functional, cell-based
[2] = Binding affinity to NMDA
[3] = biological target: Metabotropic glutamate receptor 2 (Rattus norvegicus) (UniProt P31421); assay: Antagonist activity at rat mGluR2 transiently transfected in CHO cells expressing GIRKs assessed as inhibition of glutamate-induced reversible inward K+ current; type: functional, cell-based
Rattus norvegicus [4] = species on record: Rattus norvegicus; assay: Antagonist activity at mGluR group 2 in rat hippocampus assessed as blockade of LY-354740-mediated inhibition of fEPSPs after 3 hrs; type: functional, tissue-based
[5] = Binding affinity to GABAA
[6] = biological target: Metabotropic glutamate receptor 8 (Rattus norvegicus) (UniProt P70579); assay: (§1) Displacement of [3H]-L-AP4 from rat mGluR8
[7] = biological target: T1, Metabotropic glutamate receptor 2 (Rattus norvegicus, UniProt P31421); assay: Antagonist activity at rat mGluR2 assessed as effect on (1S,3R)-ACPD-induced inhibition of forskolin-stimulated cAMP production; type: functional
[8] = biological target: T1, Metabotropic glutamate receptor 2; assay: Displacement of [3H]LY354740 from rat recombinant mGluR2 expressed in CHO cells; type: cell-based
Rattus norvegicus [9] = species on record: Rattus norvegicus; assay: Antagonist activity at mGluR group 2 in rat hippocampus assessed as reversal of LY-354740-mediated inhibition of fEPSPs in dentate gyrus; type: functional, tissue-based
[10] = biological target: T1, Metabotropic glutamate receptor 2; assay: Displacement of [3H]LY354740 from rat mGluR2
[11] = biological target: Metabotropic glutamate receptor 8 (Rattus norvegicus, UniProt P70579); assay: as §1
Metabotropic glutamate receptor 8, sequence (P70579 whole entry): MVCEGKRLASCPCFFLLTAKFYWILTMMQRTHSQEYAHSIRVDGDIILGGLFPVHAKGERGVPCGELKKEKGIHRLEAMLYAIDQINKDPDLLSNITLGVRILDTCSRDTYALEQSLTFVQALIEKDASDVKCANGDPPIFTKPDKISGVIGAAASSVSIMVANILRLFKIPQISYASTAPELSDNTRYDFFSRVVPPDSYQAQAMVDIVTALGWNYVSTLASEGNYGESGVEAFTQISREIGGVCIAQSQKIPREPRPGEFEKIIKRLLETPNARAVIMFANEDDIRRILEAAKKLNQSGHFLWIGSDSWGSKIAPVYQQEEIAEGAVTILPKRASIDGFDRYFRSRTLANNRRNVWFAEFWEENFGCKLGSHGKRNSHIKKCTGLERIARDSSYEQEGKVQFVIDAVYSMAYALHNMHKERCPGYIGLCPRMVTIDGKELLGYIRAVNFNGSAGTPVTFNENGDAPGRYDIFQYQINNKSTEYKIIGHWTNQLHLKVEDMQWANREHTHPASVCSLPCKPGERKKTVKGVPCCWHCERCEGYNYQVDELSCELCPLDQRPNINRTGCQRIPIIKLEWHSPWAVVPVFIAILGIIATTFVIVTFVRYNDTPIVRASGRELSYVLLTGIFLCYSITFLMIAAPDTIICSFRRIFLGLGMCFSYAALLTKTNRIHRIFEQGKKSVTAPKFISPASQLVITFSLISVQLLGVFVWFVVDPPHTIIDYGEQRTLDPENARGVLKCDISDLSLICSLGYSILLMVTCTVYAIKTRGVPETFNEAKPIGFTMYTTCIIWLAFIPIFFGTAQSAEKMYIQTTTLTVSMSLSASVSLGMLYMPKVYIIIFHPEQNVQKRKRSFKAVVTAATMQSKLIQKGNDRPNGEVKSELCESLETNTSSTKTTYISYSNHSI

T1 sequence (P31421 whole entry): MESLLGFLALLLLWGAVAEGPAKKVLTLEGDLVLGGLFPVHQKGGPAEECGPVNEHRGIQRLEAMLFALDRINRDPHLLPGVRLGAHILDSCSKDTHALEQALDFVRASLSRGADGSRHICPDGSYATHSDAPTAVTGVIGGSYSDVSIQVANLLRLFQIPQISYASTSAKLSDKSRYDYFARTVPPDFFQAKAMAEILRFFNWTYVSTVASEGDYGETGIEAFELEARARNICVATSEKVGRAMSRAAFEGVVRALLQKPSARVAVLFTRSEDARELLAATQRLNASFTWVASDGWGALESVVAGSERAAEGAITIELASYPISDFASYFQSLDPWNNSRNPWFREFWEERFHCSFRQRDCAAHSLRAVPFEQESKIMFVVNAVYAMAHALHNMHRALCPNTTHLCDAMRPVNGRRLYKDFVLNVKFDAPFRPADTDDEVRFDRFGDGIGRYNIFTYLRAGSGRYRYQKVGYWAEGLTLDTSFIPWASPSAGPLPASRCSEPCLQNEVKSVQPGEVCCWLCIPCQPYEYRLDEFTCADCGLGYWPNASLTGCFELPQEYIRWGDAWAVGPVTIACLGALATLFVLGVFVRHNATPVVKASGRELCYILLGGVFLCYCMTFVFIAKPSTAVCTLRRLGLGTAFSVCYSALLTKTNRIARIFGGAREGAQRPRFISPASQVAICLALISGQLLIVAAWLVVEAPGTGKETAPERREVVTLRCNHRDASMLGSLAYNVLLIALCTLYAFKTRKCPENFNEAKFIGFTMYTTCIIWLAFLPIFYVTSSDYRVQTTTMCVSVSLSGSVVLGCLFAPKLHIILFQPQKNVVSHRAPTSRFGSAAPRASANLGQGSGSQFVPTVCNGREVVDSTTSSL
Metabotropic glutamate receptor 3 (Rattus norvegicus), sequence (P31422 23-879 limits assumed): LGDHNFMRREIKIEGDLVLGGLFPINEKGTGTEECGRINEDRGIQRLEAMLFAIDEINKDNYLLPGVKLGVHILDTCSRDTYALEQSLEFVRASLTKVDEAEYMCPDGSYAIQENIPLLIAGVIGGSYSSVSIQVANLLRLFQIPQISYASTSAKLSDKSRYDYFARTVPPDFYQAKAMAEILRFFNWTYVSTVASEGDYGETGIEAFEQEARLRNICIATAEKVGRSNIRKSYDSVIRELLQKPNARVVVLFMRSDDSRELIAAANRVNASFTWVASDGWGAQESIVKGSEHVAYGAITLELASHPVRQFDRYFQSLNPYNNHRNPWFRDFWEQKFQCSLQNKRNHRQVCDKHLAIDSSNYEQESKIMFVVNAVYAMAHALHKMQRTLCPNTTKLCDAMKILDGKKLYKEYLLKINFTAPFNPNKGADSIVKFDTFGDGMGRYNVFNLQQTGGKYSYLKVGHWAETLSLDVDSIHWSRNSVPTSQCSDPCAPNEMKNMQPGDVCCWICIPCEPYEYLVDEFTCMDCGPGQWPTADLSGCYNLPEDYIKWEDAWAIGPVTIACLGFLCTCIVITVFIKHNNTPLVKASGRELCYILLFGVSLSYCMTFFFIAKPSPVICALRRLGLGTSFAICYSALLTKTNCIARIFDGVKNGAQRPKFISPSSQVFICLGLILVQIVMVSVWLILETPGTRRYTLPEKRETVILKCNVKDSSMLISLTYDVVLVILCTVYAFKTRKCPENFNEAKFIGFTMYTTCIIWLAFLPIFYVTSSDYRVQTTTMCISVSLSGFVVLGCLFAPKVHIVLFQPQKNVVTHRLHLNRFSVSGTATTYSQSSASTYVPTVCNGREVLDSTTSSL
Metabotropic glutamate receptor 2 (Rattus norvegicus), sequence (P31421 19-872 limits assumed): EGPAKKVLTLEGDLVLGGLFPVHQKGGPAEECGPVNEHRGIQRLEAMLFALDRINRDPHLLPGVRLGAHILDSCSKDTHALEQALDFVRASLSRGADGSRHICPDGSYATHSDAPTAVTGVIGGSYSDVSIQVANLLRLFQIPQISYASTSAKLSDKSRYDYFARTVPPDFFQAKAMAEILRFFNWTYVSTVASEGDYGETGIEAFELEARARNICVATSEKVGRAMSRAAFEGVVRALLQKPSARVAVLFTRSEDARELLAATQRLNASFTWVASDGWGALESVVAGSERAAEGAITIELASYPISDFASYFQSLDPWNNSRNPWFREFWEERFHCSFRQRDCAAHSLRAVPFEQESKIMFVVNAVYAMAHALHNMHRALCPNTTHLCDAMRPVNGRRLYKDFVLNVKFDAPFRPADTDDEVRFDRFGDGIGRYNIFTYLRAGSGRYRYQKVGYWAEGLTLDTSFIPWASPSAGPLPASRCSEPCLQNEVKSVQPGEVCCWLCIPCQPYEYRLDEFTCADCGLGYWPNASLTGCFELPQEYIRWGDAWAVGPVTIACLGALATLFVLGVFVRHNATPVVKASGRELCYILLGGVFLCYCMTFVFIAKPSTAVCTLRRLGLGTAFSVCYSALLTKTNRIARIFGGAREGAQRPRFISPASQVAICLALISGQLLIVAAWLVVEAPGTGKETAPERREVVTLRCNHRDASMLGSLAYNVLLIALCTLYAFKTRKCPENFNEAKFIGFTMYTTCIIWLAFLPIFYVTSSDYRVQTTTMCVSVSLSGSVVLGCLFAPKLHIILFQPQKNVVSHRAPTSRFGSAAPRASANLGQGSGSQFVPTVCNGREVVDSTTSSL
Metabotropic glutamate receptor 8 (Rattus norvegicus), sequence (P70579 whole entry): as the sequence (P70579 whole entry) above

| Structure (SMILES) | IC50 [7] [nM] | IC50 [8] [nM] | also measured |
| --- | --- | --- | --- |
| Cc1ccc2c(c1)NC(=O)CC(c1ccccc1)=N2 | – | – | IC50 [10]: 6400 nM |
| CN(C)c1cc2c(cc1C#Cc1ccccc1)NC(=O)CC(c1cccc(-n3ccnn3)c1)=N2 | – | 36 | – |
| Cn1ccnc1-c1cccc(C2=Nc3ccc(C#Cc4ccccc4)cc3NC(=O)C2)c1 | – | 730 | – |
| COCCOc1cc2c(cc1C#Cc1ccccc1)NC(=O)CC(c1cccc(-n3ccnc3)c1)=N2 | 15 | 23 | – |
| O=C1CC(c2cccc(-n3nncc3CO)c2)=Nc2cc(O)c(C#Cc3ccc(F)cc3)cc2N1 | – | 378 | – |
| N#Cc1cccc(C2=Nc3ccc(C#Cc4ccccc4)cc3NC(=O)C2)c1 | 17 | – | – |
| O=C1CC(c2cccc(-n3ccnn3)c2)=Nc2cc(O)c(C#Cc3ccc(F)cc3)cc2N1 | 17 | 20 | Activity [1]: Active; Activity [2]: inactive; Activity [3]: Active; Activity [5]: inactive; IC50 [11]: 5000 nM |
| O=C1CC(c2cccc(-n3ccnc3)c2)=Nc2cc(OCCO)c(C#Cc3ccccc3)cc2N1 | – | 64 | – |
| CN(CCO)c1cc2c(cc1C#Cc1ccc(F)cc1)NC(=O)CC(c1cccc(-n3ccnc3)c1)=N2 | – | 140 | – |
| O=C1CC(c2cccc(-n3ccnc3)c2)=Nc2ccc(C#Cc3ccccc3F)cc2N1 | 16 | 20 | – |
| O=C1CC(c2cccc(-n3ccnc3)c2)=Nc2ccc(C#Cc3ccccc3)cc2N1 | 10 | 13 | – |
| O=C1CC(c2cccc(-n3ccnc3)c2)=Nc2cc(OCCO)c(C#Cc3ccc(F)cc3)cc2N1 | – | 46 | – |
| N#CCOc1cc2c(cc1C#Cc1ccccc1)NC(=O)CC(c1cccc(-n3ccnc3)c1)=N2 | 13 | 18 | – |

More lines, main results first:

| IC50 [7] [nM] | IC50 [8] [nM] | Structure (SMILES) | also measured |
| --- | --- | --- | --- |
| 11 | 26 | O=C1CC(c2cccc(-n3ccnc3)c2)=Nc2cc(O)c(C#Cc3ccc(F)cc3)cc2N1 | Activity [1]: Active; Activity [2]: inactive; Activity [3]: Active; Activity (Rattus norvegicus [4]): Active; Activity [5]: inactive; Activity [6]: inactive; Activity (Rattus norvegicus [9]): Active |
| 9 | 9 | O=C1CC(c2cccc(-n3ccnc3)c2)=Nc2ccc(C#Cc3ccc(F)cc3)cc2N1 | – |
| – | 170 | Cc1cn(-c2cccc(C3=Nc4ccc(C#Cc5ccccc5)cc4NC(=O)C3)c2)c(C)n1 | – |
| – | 72 | O=C1CC(c2cccc(-n3cnnn3)c2)=Nc2ccc(C#Cc3ccc(F)cc3)cc2N1 | – |
| – | 98 | Cc1cn(-c2cccc(C3=Nc4ccc(C#Cc5ccc(F)cc5)cc4NC(=O)C3)c2)cn1 | – |
| 12 | 6 | O=C1CC(c2cccc(-n3ccnn3)c2)=Nc2ccc(C#Cc3ccc(F)cc3)cc2N1 | – |
| – | 98 | O=C1CC(c2cccc(-n3cncn3)c2)=Nc2ccc(C#Cc3ccc(F)cc3)cc2N1 | – |

Source: ChEMBL document CHEMBL1142351, “Synthesis and characterization of 8-ethynyl-1,3-dihydro-benzo[b][1,4]diazepin-2-one derivatives: part 2. New potent non-competitive metabotropic glutamate receptor 2/3 antagonists” (Bioorg Med Chem Lett, 2008)
